Assay results as given in patent US7132504B2, “Hepatitis C virus inhibitors” (Bristol-Myers Squibb Company, priority 2003, dated 2006).

Key:
[1] = system: human pancreatic chymotrypsin; assay: Specificity assay, chymotrypsin; assay type: biochemical; conditions: 2 h enzyme-inhibitor pre-incubation
Protocol: (§1) The specificities of compounds of the present invention were determined against a variety of serine proteases: human neutrophil elastase (HNE), porcine pancreatic elastase (PPE) and human pancreatic chymotrypsin and one cysteine protease: human liver cathepsin B. In all cases a 96-well plate format protocol using colorimetric p-nitroaniline (pNA) substrate specific for each enzyme was used as described previously (PCT Patent Application No. WO 00/09543) with some modifications to the serine protease assays. All enzymes were purchased from Sigma while the substrates were from Bachem.
(§2) Each assay included a 2 h enzyme-inhibitor pre-incubation at room temperature followed by addition of substrate and hydrolysis to ˜30% conversion as measured on a Spectramax Pro microplate reader. Compound concentrations varied from 100 to 0.4 μM depending on their potency. […]
(§3) The percentage of inhibition was calculated using the formula: [1−((UVinh−UVblank)/(UVctl−UVblank))]×100 […]

[2] = biological target: BMS strain of the NS3/4A protease complex (UniProt P27958, C1454S/C1711G, species not given/STRAIN_BMS); assay: Recombinant HCV NS3/4A protease complex FRET peptide assay, BMS strain; assay type: biochemical, HCV genotype 1a (BMS strain)
Text: The purpose of this in vitro assay was to measure the inhibition of HCV NS3 protease complexes, derived from the BMS strain, H77 strain or J416S strain, as described below, by compounds of the present invention. This assay provides an indication of how effective compounds of the present invention would be in inhibiting HCV proteolytic activity.
Serum from an HCV-infected patient was obtained from Dr. T. Wright, San Francisco Hospital. An engineered full-length cDNA (compliment deoxyribonucleic acid) template of the HCV genome (BMS strain) was constructed from DNA fragments obtained by reverse transcription-PCR (RT-PCR) of serum RNA (ribonucleic acid) and using primers selected on the basis of homology between other genotype 1a strains. From the determination of the entire genome sequence, a genotype 1a was assigned to the HCV isolate according to the classification of Simmonds et al. (See P Simmonds, K A Rose, S Graham, S W Chan, F McOmish, B C Dow, E A Follett, P L Yap and H Marsden, J. Clin. Microbiol., 31(6), 1493–1503 (1993)). […]

human liver cathepsin B = biological target: T1, human liver cathepsin B (Homo sapiens, UniProt P07858); assay: Specificity assay, cathepsin B; assay type: biochemical; conditions: assay interference at higher concentrations
T1 construct: purchased Sigma; host or cells: human liver
Protocol: as §1, §2, §3

SMILES: C=CC1C[C@]1(NC(=O)[C@@H]1C[C@@H](Oc2cc(-c3ccccc3)nc3cc(OC)ccc23)CN1C(=O)[C@@H](NC(=O)OC)C(C)(C)C)C(=O)NS(=O)(=O)N(C)Cc1ccccc1 (stereo partly drawn) [Compound 9]
- IC50 [1]: > 200 µM
- IC50 [2]: 0.128 µM
- IC50 (human liver cathepsin B): > 50 µM
